Legend:
Assay type in all cases: functional
KBv200 [1] = assay: Inhibition of cell proliferation in human KBv200 cells assessed as inhibition of VNR at 10 uM incubated for 72 hrs in presence of VNR by SRB assay relative to control
KBv200 [2] = assay: Cytotoxicity against human KBv200 cells at 10 uM incubated for 72 hrs by SRB assay relative to control
KBv200 [3] = assay: Reversal fold, ratio of VNR IC50 to VNR IC50 in presence of test compound for human KBv200 cells incubated for 72 hrs by SRB assay

Row | SMILES | inhibition at 10 µM (KBv200 [1]) [%] | Activity (KBv200 [2]) [%] | Ratio IC50 (KBv200 [3])
1 | CC(C)[C@@H]1NC(=O)CCCCCCCC(=O)N[C@@H](Cc2ccccc2)COC(=O)Cc2ccc(cc2)NC1=O | 35.9 | – | –
2 | CC(C)[C@@H]1NC(=O)CCCCCCCC(=O)N[C@@H](C(C)(C)C)COC1=O | 53.6 | – | –
3 | CC(C)[C@@H]1NC(=O)CCCCCCCC(=O)N[C@@H](Cc2ccccc2)COC(=O)[C@H](C(C)C)NC1=O | 91.1 | 15.8 | 7.9
4 | CC[C@H](C)[C@@H]1NC(=O)[C@H](C(C)C)NC(=O)CCCCCCCC(=O)NCCOC1=O | 51.1 | – | –
5 | CC(C)[C@@H]1NC(=O)CCCCCCCCCC(=O)N[C@@H](Cc2ccccc2)COC1=O | 93.4 | 1.8 | 55.1
6 | CC[C@H](C)[C@@H]1NC(=O)[C@H](C(C)C)NC(=O)CCCCCCCC(=O)NCCCCOC1=O | 54 | – | –
7 | CC(C)[C@@H]1NC(=O)CCCCCCCCCCCC(=O)N[C@H](Cc2ccccc2)COC1=O | 75.4 | 17 | 51.3
8 | CC(C)[C@@H]1NC(=O)CCCCCCCC(=O)N[C@@H](Cc2ccccc2)COC1=O | 80.6 | 0 | 26.1
9 | CC(C)[C@@H]1NC(=O)CCCCCCCC(=O)N[C@@H](Cc2ccccc2)COC(=O)[C@H](Cc2ccccc2)NC1=O | 88.9 | 0 | 2.7
10 | CC[C@H](C)[C@@H]1NC(=O)[C@H](C(C)C)NC(=O)CCCCCCC(=O)Nc2cccc(c2)COC1=O | 83.5 | 4.4 | 10.2
11 | CC(C)[C@@H]1NC(=O)CCCCCCCC(=O)N[C@@H](Cc2ccccc2)COC(=O)Cc2cccc(c2)NC1=O | 81.6 | 0 | 6.5
12 | CC(C)[C@@H]1NC(=O)CCOCCOCCOCCC(=O)N[C@@H](Cc2ccccc2)COC1=O | 0.3 | – | –
13 | CC[C@H](C)[C@@H]1NC(=O)[C@H](C(C)C)NC(=O)CCCCCCCCC(=O)N[C@@H](Cc2ccccc2)COC1=O | 89.7 | 8.6 | 22.2
14 | CC(C)C[C@H]1COC(=O)[C@H](C(C)C)NC(=O)CCCCCCCC(=O)N1 | 48.9 | – | –
15 | CCC[C@H]1COC(=O)[C@H](C(C)C)NC(=O)CCCCCCCC(=O)N1 | 46.3 | – | –
16 | CC(C)[C@@H]1NC(=O)CCCCCCCC(=O)NCCCCOC1=O | 15.7 | – | –
17 | CC(C)[C@@H]1NC(=O)CCCCCCCC(=O)NCCOC1=O | 9.5 | – | –
18 | CC[C@H](C)[C@@H]1NC(=O)[C@H](C(C)C)NC(=O)CCCCCCCC(=O)Nc2ccccc2COC1=O | 90.9 | 19.8 | 7.3
19 | CC(C)[C@@H]1NC(=O)CCCCCCC(=O)N[C@@H](Cc2ccccc2)COC1=O | 9.3 | – | –
20 | CC[C@H](C)[C@@H]1NC(=O)[C@H](C(C)C)NC(=O)CCCCCCC(=O)N[C@@H](Cc2ccccc2)COC1=O | 28.7 | – | –

Row | SMILES | inhibition at 10 µM (KBv200 [1]) [%] | Activity (KBv200 [2]) [%] | Ratio IC50 (KBv200 [3])
21 | CC(C)[C@@H]1NC(=O)CCCCCCCC(=O)Nc2ccccc2OC1=O | 14.5 | – | –
22 | CC[C@H](C)[C@H]1COC(=O)[C@H](C(C)C)NC(=O)CCCCCCCC(=O)N1 | 51.2 | – | –
23 | CC(C)[C@@H]1NC(=O)CCCCCCCC(=O)NCCCOC1=O | 15 | – | –
24 | CC[C@H](C)[C@@H]1NC(=O)[C@H](C(C)C)NC(=O)CCCCCCCC(=O)NCCCOC1=O | 44.8 | – | –
25 | CC[C@H](C)[C@@H]1NC(=O)[C@H](C(C)C)NC(=O)CCCCCCCCC(=O)Nc2cccc(c2)COC1=O | 77.6 | 10.9 | 7.3
26 | CC(C)[C@@H]1NC(=O)CCCCCCCCC(=O)N[C@@H](Cc2ccccc2)COC1=O | 85.4 | 2.2 | 31.7
27 | CC(C)[C@@H]1NC(=O)CCCCCCCC(=O)Nc2cccc(c2)COC1=O | 13.1 | – | –
28 | CC[C@H](C)[C@@H]1NC(=O)[C@H](C(C)C)NC(=O)CCCCCCCC(=O)NCC(F)(F)COC1=O | 73.4 | 10.3 | 2.3
29 | CC(C)[C@@H]1NC(=O)CCCCCCCC(=O)N[C@@H](Cc2ccccc2)COC(=O)CCCNC1=O | 26.8 | – | –
30 | CC[C@H](C)[C@@H]1NC(=O)[C@H](C(C)C)NC(=O)CCCCCCCC(=O)N[C@@H](C)COC1=O | 49 | – | –
31 | CC[C@H](C)[C@@H]1NC(=O)[C@H](C(C)C)NC(=O)CCCCCCCC(=O)N[C@@H](Cc2ccccc2)COC1=O | 91.3 | 21.8 | 20.8
32 | CC(C)[C@@H]1NC(=O)CCCCCCCC(=O)Nc2ccccc2COC1=O | 29.7 | – | –
33 | CC(C)[C@@H]1NC(=O)CCCCCCCCCCC(=O)N[C@@H](Cc2ccccc2)COC1=O | 97.6 | 5 | 85
34 | CC(C)[C@@H]1NC(=O)CCCCCCCC(=O)Nc2cccc(c2)OC1=O | 12.8 | – | –
35 | CC(C)[C@@H]1NC(=O)CCCCCCCC(=O)N[C@@H](C(C)C)COC1=O | 34.4 | – | –
36 | CC(C)[C@@H]1NC(=O)CCCCCCCC(=O)NCCCCCCOC1=O | 21.1 | – | –
37 | CSCC[C@H]1COC(=O)[C@H](C(C)C)NC(=O)CCCCCCCC(=O)N1 | 34 | – | –
38 | CC(C)[C@H]1NC(=O)CCCCCCCCCCCC(=O)N[C@@H](Cc2ccccc2)COC1=O | 68.3 | 16.7 | 57.2
39 | CC(C)[C@@H]1NC(=O)CCCCCCCCCCCCC(=O)N[C@@H](Cc2ccccc2)COC1=O | 97.3 | 4.4 | 99.2
40 | CC[C@H](C)[C@@H]1NC(=O)[C@H](C(C)C)NC(=O)CCCCCC(=O)N[C@@H](Cc2ccccc2)COC1=O | 25.7 | – | –

Row | SMILES | inhibition at 10 µM (KBv200 [1]) [%] | Activity (KBv200 [2]) [%] | Ratio IC50 (KBv200 [3])
41 | CC(C)[C@@H]1NC(=O)CCCCCCCC(=O)NCCCCCOC1=O | 26.6 | – | –
42 | CC[C@H](C)[C@@H]1NC(=O)[C@H](C(C)C)NC(=O)CCCCCCCC(=O)N[C@@H]2CC[C@H](C2)OC1=O | 72.2 | 20.5 | 1.4
43 | CC(C)[C@@H]1NC(=O)CCCCCCCC(=O)N[C@H]2[C@@H]3C[C@@H]4C[C@H]2C[C@@](C4)(C3)OC1=O | 14.1 | – | –
44 | CC[C@H](C)[C@@H]1NC(=O)[C@H](C(C)C)NC(=O)CCCCCCCC(=O)N[C@@H](C(C)C)COC1=O | 63.6 | 18.6 | 1.9
45 | CC(C)[C@@H]1NC(=O)CCCCCCCC(=O)N[C@@H](c2ccccc2)[C@@H](c2ccccc2)OC1=O | 14.1 | – | –
46 | CC(C)C1NC(=O)CCCCCCCC(=O)N[C@@]23C[C@H]4C[C@@H](C2)C[C@](C4)(C3)OC1=O (some centres not stated) | 42.9 | – | –
47 | CC(C)[C@@H]1NC(=O)CCCCCCCC(=O)N[C@@H](Cc2ccccc2)COC(=O)[C@H](C)NC1=O | 55.5 | – | –
48 | CC(C)[C@@H]1NC(=O)CCCCCCCC(=O)N[C@@H](C)COC1=O | 20.7 | – | –
49 | CC(C)[C@@H]1NC(=O)CCCCCCCC(=O)N[C@@H](Cc2ccccc2)COC(=O)CCNC1=O | 12 | – | –
50 | CC(C)[C@H]1NC(=O)CCCCCCCCCCCC(=O)N[C@H](Cc2ccccc2)COC1=O | 91.5 | 15.8 | 114.5
51 | CC(C)[C@@H]1NC(=O)CCCCCCCC(=O)N[C@@H](Cc2ccccc2)COC(=O)CNC1=O | 11 | – | –
52 | CC(C)[C@@H]1NC(=O)CCCCCCCC(=O)N[C@H](c2ccccc2)CCOC1=O | 30.1 | – | –
53 | CC[C@H](C)[C@@H]1NC(=O)[C@H](C(C)C)NC(=O)CCCCCC(=O)Nc2cccc(c2)COC1=O | 14.5 | – | –
54 | CC(C)[C@@H]1NC(=O)CCCCCC(=O)N[C@@H](Cc2ccccc2)COC1=O | 42.6 | – | –
55 | CC[C@H](C)[C@@H]1NC(=O)[C@H](C(C)C)NC(=O)CCCCCCCC(=O)NCc2cccc(c2)OC1=O | 6.4 | – | –
56 | CC[C@H](C)[C@@H]1NC(=O)[C@H](C(C)C)NC(=O)CCCCCCCC(=O)Nc2cccc(c2)COC1=O | 92.3 | 31 | 26.8
57 | CC(C)[C@@H]1NC(=O)CCCCCCCC(=O)NCC(C)(C)COC1=O | 38.8 | – | –
58 | CC(C)[C@@H]1NC(=O)CCCCCCCC(=O)NC(C)(C)CCOC1=O | 23.1 | – | –
59 | CC(C)[C@@H]1NC(=O)CCCCCCCC(=O)N[C@@H](c2ccccc2)COC1=O | 50.2 | – | –
60 | CC[C@H](C)[C@@H]1NC(=O)[C@H](C(C)C)NC(=O)CCCCCCCC(=O)Nc2cc(F)cc(c2)COC1=O | 90.7 | 4.6 | 19.3

From ChEMBL document CHEMBL5528088, “Design and Synthesis of Cyclolipopeptide Mimics of Dysoxylactam A and Evaluation of the Reversing Potencies against P-Glycoprotein-Mediated Multidrug Resistance” (J Med Chem, 2024)
